Results taken from US20110293745A1, “AURORA KINASE INHIBITORS” (SUNESIS PHARMACEUTICALS, INC., priority 2008, published 2011).

What was measured:
[1] = tested on: histone H3 phosphorylation in femur bone marrow; test: pHH3 immunohistochemistry in mouse bone marrow; type: in vivo; conditions: for bone marrow cells positive for pHH3, times less evident than vehicle: 170 mg/kg IP BIW×3
Procedure: For each study, animals were randomized by tumor volume and distributed into groups of ten animals each. […] Inhibition of histone H3 (HH3) phosphorylation was evaluated in HCT 116 xenograft tumors, mouse femur bone marrow, and mouse skin punch biopsy sections by immunohistochemistry (IHC). […] The tumors were collected 6 hrs post-dose on day 4, 11, 18 and on day 25 (one week after completion of dosing phase of the experiment). Phosphorylated histone H3 (pHH3) was detected by immunohistochemistry staining of tissue sections with the antibody # 9701 (Cell Signaling Technology, Inc.), which recognizes phosphorylation of Ser10 residue in histone H3 protein.

[2] = tested on: Calu 6 lung carcinoma xenograft; test: In vivo efficacy, mouse xenograft; conditions: CALU6 (NSCLC)
Procedure: (§1) Percent TGI is then calculated with the following equation: […]
(§2) Time To Endpoint (TTE) was calculated for each individual animal to reach the predetermined study end point where the tumor volume becomes 1200 mm^3 or 10% of body weight or a greater than 20% body weight loss for two sequential measurements. The TTE is calculated and the median value is recorded for the group. Tumor Growth Delay (TGD) is then calculated with the following equation: […]
Calu 6 lung carcinoma cells [200 μL of a 5×10^7 cells/ml suspension (1:1 DPBS with cells:Matrigel)] were implanted subcutaneously in the right hind flank of mice. After 11 days, when tumors reached an average volume of approximately 150 mm^3, animals were weighed, randomized by tumor volume (l×w×h×0.52), and assigned to the various study groups before initial dosing.

Axl = molecular target: T1, Axl (Homo sapiens, UniProt P30530); test: Radiometric kinase assay (Upstate panel); type: biochemical
T1 construct: purchased Upstate Biotechnology, Dundee, UK
T1 sequence (P30530 26-894): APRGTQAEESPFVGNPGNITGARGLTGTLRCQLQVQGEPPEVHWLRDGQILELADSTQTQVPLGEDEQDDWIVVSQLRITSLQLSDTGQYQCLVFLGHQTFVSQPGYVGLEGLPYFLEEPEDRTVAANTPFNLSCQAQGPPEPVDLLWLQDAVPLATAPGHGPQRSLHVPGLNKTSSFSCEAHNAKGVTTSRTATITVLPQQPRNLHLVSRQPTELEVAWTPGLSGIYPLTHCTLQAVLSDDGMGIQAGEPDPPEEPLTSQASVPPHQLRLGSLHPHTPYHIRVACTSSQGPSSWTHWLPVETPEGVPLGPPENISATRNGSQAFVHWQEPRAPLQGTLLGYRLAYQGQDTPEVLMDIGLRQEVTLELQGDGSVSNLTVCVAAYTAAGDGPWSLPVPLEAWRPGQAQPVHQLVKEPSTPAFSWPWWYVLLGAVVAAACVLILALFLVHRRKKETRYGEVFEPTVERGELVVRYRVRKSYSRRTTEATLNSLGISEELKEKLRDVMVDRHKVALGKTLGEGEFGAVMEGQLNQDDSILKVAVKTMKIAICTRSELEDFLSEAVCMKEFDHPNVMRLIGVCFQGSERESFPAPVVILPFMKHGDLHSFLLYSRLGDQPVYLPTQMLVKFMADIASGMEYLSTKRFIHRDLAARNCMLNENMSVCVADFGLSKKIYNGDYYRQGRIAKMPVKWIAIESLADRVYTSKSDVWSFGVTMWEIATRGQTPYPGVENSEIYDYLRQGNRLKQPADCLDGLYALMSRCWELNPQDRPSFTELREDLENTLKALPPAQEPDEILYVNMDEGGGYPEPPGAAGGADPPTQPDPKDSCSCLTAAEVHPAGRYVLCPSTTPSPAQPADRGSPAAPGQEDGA

HCT 116 cells = test: Fluorescent imaging (DNA and tubulin); type: cell-based, human; conditions: 16 nM, 72 hr
Procedure: Cells were then fixed with 4% paraformaldehyde for 20 min at room temperature, washed with 1×PBS three times, permeabilized with 0.1% Triton® X-100 nonionic surfactant for 5 min at room temperature, washed with 1×PBS twice, blocked with 10% fetal bovine serum (FBS) in PBS for 2 hr at room temperature. The cells were incubated in a diluted alpha-tubulin primary antibody solution in 10% FBS for 2 days at 4° C., and stained with DAPI (DNA/.blue) and with a diluted FITC-labeled secondary antibody (tubulin/green) solutions in 10% FBS for 1 hr at room temperature away from light. Cells were then washed in 1×PBS and the coverslips were mounted on slides and analyzed with a […]2 fluorescence microscope with a 63× oil immersion objective. Images were captured on a […] camera and analyzed using Image-Pro software. For both images captured, the same objective was used.

A375 melanoma xenograft = test: In vivo efficacy, mouse xenograft
Procedure: as §1, §2
A375 melanoma tumor fragments (1 mm^3) were implanted subcutaneously in the right hind flank of mice. After 9 days, when tumors reached an average volume of approximately 110 mm^3, animals were weighed, randomized by tumor volume (l×w×h×0.52), and assigned to the various study groups before initial dosing.

[3] = Distribution of compound in tumor and plasma, HCT 116 xenograft mice; type: in vivo, mouse; conditions: for half-life: female, nu/nu athymic, mouse, ip, 170 mg/kg
Procedure: The studies in Examples 20, 21, and 22 used female mice nu/nu athymic mice. Compound 1 was formulated fresh each week for dosing. […] HCT 116 colorectal carcinoma cells were implanted in the animals' right hind flanks subcutaneously with 200 μL of a 2.5×10^7 cells/mL suspension [1:1 Dulbecco's PBS (DPBS) with cells:Matrigel™. […] Dosing schedules are provided separately for each of the studies in Examples 28, 29, and 30. […] Terminal blood and tumor samples were harvested between 15 min and 96 hr. Female nu/nu athymic mice received HCT 116 colorectal cancer cell suspension (1:1 DPBS with cells:Matrigel) as a subcutaneous injection in the right hind flank. […] For HPLC-MS/MS, the detector consisted of an API4000 (Sciex/ABI, Foster City, Calif.) triple quadrapole mass spectrometer using turbo electrospray ionization.

[4] = tested on: pHH3 in HCT 116 xenograft tumor; test: Plasma concentration versus pHH3 in tumor (Western blot, ELISA, HPLC-MS/MS); type: in vivo, mouse
Procedure: When tumors reached an average volume of 400 mm^3, mice were sorted into randomized groups of 3 per time point. […] Tumor samples were frozen on liquid nitrogen, and ground into a fine powder. Lysis buffer containing phosphatase inhibitors was added to the tumor powder before homogenization and a snap freeze cycle. The cellular debris was removed by centrifugation, and the protein concentration was measured using the BioRad DC Protein Assay. […] Protein was transferred to PVDF membrane at a constant 30 V for 1 hr using the Invitrogen XCell II Blot Module transfer system and, upon completion, the membranes were incubated with 5% milk in TBST (Tris-buffered saline with Tween) at room temperature for 1 hr. […] Membranes were washed with TBST, and antibodies were detected with ECL Plus chemiluminescent detection system (Amersham), followed by exposure to Kodak BioMax film.
Films were visually assessed for total histone H3 (HH3) and histone H3 phosphorylation (pHH3). Total HH3 levels served as loading controls.
Phospho-histone H3 levels were determined using a commercial ELISA kit from (# KHO0671, Biosource/Invitrogen). The conditions were as described by the manufacturer with 100 μg total proteins from tumor lysates prepared as described in this Example.
Preparation of Plasma Samples. […]

Aurora C = Aurora C (Homo sapiens, UniProt Q9UQB9); test: HTRF-based biochemical IC50 assay
Chain of Aurora C (Q9UQB9 whole entry): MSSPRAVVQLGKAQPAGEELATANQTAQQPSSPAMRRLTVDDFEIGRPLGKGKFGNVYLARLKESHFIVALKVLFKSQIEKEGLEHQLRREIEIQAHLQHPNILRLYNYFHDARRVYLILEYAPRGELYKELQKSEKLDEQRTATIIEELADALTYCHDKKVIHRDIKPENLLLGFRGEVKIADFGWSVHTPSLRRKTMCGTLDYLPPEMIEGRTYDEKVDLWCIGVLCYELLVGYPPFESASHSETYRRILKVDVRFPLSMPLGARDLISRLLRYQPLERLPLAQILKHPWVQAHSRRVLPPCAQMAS
Description: […]. A biotin-conjugated histone H3 peptide (Upstate Biotechnology) was used as a substrate.

pHH3 in HT-29 = test: cells; conditions: Homo sapiens, HT-29, 1 h, read-out: pHH3 IC50
MiaPaca2 = test: Cell cycle analysis (cells with ≧4N DNA content); type: cell-based; conditions: Homo sapiens, MIA PaCa-2, MiaPaca2, 16 hours
Description: Cells were fixed, stained, and analyzed.

[5] = tested on: HCT 116 colon cancer xenograft; test: In vivo efficacy, mouse xenograft
DDR2 = molecular target: T2, DDR2 (Homo sapiens, UniProt Q16832); test: Radiometric kinase assay (Upstate panel); type: biochemical
T2 construct: purchased Upstate Biotechnology, Dundee, UK
T2 sequence (Q16832 22-855): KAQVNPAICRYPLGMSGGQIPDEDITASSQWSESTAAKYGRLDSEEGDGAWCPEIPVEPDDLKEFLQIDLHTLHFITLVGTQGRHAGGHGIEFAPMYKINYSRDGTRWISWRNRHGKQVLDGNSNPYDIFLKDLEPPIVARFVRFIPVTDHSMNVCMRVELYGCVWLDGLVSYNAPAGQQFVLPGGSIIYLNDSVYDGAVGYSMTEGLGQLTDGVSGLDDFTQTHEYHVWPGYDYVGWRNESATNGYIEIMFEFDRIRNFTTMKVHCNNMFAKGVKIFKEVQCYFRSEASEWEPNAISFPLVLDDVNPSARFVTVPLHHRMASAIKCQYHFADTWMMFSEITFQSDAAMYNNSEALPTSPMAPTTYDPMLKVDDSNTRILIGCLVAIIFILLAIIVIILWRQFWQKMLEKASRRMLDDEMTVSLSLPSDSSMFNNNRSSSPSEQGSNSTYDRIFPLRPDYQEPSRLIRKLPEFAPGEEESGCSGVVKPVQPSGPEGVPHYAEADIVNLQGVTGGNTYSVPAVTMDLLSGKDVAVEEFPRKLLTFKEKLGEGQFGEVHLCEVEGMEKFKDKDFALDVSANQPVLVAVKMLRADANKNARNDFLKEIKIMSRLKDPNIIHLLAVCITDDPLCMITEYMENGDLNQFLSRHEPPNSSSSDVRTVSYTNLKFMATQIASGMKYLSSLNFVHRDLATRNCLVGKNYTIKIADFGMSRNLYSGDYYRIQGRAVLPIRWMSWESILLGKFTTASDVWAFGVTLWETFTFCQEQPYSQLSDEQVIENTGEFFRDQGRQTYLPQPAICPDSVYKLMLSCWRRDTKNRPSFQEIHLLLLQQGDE

[6] = Mass balance, elimination, autoradiography and metabolites with 14C-label; type: in vivo; conditions: IV bolus 50 mg/kg, male rats, whole-body autoradiography
[7] = Pharmacokinetics, single bolus intravenous injection; type: in vivo, beagle dogs; conditions: beagle, dog, plasma, 5 mg/kg
Description: Pharmacokinetic parameters were estimated using noncompartmental analysis within WinNonlin v. 4.1. Quantification of Compound 2 was done by HPLC-MS/MS after extraction from plasma with acetonitrile. […] For rising dose experiments measuring exposure for each species, sets containing several animals were singly dosed at a given dose. Results from single-dose experiments are shown in FIG. 10A, Table 43, and in FIG. 10B and Table 44, respectively. […] C0 is initial concentration extrapolated to time zero. AUCINF is area under the plasma-concentration time curve from time zero extrapolated to the infinite time. CL is clearance; Vss is steady state volume of distribution. T1/2 is half-life.

CS(=O)(=O)O.O=C(Nc1cccc(Cl)c1)Nc1ncc(CCNc2ncnc3ccsc23)s1 [Compound 1, 1-(3-chlorophenyl)-3-{5-[2-(thieno[3,2-d]pyrimidin-4-ylamino)ethyl]thiazo}-urea]
bone marrow cells positive for pHH3, times less evident than vehicle ([1]; day 11): 3 times | bone marrow cells positive for pHH3, times less evident than vehicle ([1]; day 18): 7 times | Histone H3 phosphorylation in bone marrow ([1]; day 25): recovered to normal levels | % TGI ([2]; 42.5 mg/kg biw × 3): 23.5% | % TGI ([2]; 85 mg/kg biw × 3): 28.7% | % TGI ([2]; 170 mg/kg biw × 3): 91.4% | IC50 (Axl): 0.084 µM | cell morphology (HCT 116 cells): formation of large polyploid cells | % TGI (A375 melanoma xenograft; 42.5 mg/kg biw × 3): 1.2% | TGD (A375 melanoma xenograft; 42.5 mg/kg biw × 3): 0 days | % TGI (A375 melanoma xenograft; 85 mg/kg biw × 3): 20.6% | TGD (A375 melanoma xenograft; 85 mg/kg biw × 3): 0 days | % TGI (A375 melanoma xenograft; 170 mg/kg biw × 3): 65.4% | TGD (A375 melanoma xenograft; 170 mg/kg biw × 3): 7.4 days | time measurable drug levels are sustained in the HCT 116 tumor ([3]; post-dose): more than 96 hours | time maximal inhibition of phospho-histone H3 in tumor was maintained ([4]; single dose of 170 mg/kg IP): up to 24 hours | IC50 values, Aurora kinase C (summary in words) (Aurora C): low nanomolar range | IC50 (Aurora C; HTRF, N 1): 0.0034 µM | IC50 (pHH3 in HT-29): 0.06 µM | EC50 (MiaPaca2): 0.009 µM | % TGI (Day 36) ([5]; 100 mg/kg, qd × 5, 9 d off × 2): 91.6% | % TGI (Day 36) ([5]; 125 mg/kg, Qw × 3): 79.8% | % TGI (Day 36) ([5]; 150 mg/kg, biw × 3): 95.6% | IC50 (DDR2): 0.082 µM

O=C(Nc1cccc(Cl)c1)Nc1ncc(CCNc2ncnc3ccsc23)s1 [Compound 2, 1-(3-chlorophenyl)-3-{5-[2-(thieno[3,2-d]pyrimidin-4-ylamino)ethyl]thiazol-2-yl}-urea]
time of maximum tissue concentrations of radioactivity [6]: 1 h | half-life ([3]; plasma, read-out: half-life in plasma (converted)): 4.7 h | half-life ([3]; tumor, read-out: half-life in tumor (converted)): 7.5 h | plasma concentration that produced maximal inhibition of phosphorylation of Histone H3 in tumor ([4]; 1 hr postdose, HCT 116 xenograft mice, FIG. 43B): 5 µM | AUC(0-inf) [7]: 12.3 µg·h/mL | C0 [7]: 2.8 µg/mL | clearance [7]: 0.408 L/h/kg | half-life [7]: 1.1 h | Vd ([7]; read-out: Vss): 1 L/kg
